This note sets out measurements from patent US9642869B2, “Boronic acid derivatives and therapeutic uses thereof” (Rempex Pharmaceuticals, Inc., priority 2013, dated 2017).

The target of one data set is P99 (Enterobacter cloacae, UniProt P05364). Kind of data set: Inhibition of nitrocefin cleavage by purified enzyme (Ki). The format is biochemical. The following applies: nitrocefin reporter substrate, 10 min preincubation; read-out: Ki (P99, NCF). Summed up:
(§1)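 Steps: enzyme plus inhibitor dilutions in reaction buffer; 10 min at room temperature; add nitrocefin; read absorbance at 490 nm each 10 sec for 10 min.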

Another data set has as its target KPC-2 (Klebsiella pneumoniae, UniProt Q9F663). The data set is described as above. The format is biochemical. Conditions: nitrocefin reporter substrate, 10 min preincubation; read-out: Ki (KPC-2, NCF). Summed up: as §1
For another data set, the target named is CTX-M-14 (Escherichia coli, UniProt Q9L5C7). Described as above. It counts as biochemical. The following applies: nitrocefin reporter substrate, 10 min preincubation; read-out: Ki (CTX-M-14, NCF). In short, it runs like this:
as §1

A further data set has as its target SHV-12 (Klebsiella pneumoniae, UniProt P0AD64, E235K/G234S/L31Q). Described as above. It counts as biochemical. Summed up: as §1
Another data set has as its target OXA-48 (Klebsiella pneumoniae, UniProt Q6XEC0). The data set is described as above. Conditions: nitrocefin reporter substrate, 10 min preincubation; read-out: Ki (OXA-48, NCF). The format is biochemical. In short, it runs like this: as §1
For data set [1], the system named is ECL1002. It counts as cell-based. The following applies: minimum BLI concentration inhibiting growth with tigemonam at 4 μg/mL.
Data set [2] deals with TEM-10 ec302. The data set can be described thus: Aztreonam potentiation (MPC@4). The format is cell-based. The following applies: minimum BLI concentration inhibiting growth with 4 μg/mL aztreonam.
Data set [3] deals with ECL1002. Kind of data set: Aztreonam potentiation (MPC@4). It counts as cell-based. The following applies: minimum BLI concentration inhibiting growth with 4 μg/mL aztreonam.
Data set [4] deals with CMY-6 EC1010. It counts as cell-based. Conditions: minimum BLI concentration inhibiting growth with tigemonam at 4 μg/mL.
Another data set concerns KP1004 KPC-2. The data set can be described thus: Biapenem potentiation (MPC@1). It counts as cell-based. The following applies: minimum BLI concentration inhibiting growth with 1 μg/mL biapenem. How it is done:
(§2) Biapenem was present in the test medium at 1 μg/mL. […] Table 3 summarizes the BLI potency of biapenem potentiation (MPC@1) for two strains overexpressing class A (KPC) and class D (OXA-48) carbapenemases. Biapenem MIC for each strain is also shown.

For another data set, the system named is OXA-48 KP1086. The data set can be described thus: Biapenem potentiation (MPC@1). It counts as cell-based. Conditions: minimum BLI concentration inhibiting growth with 1 μg/mL biapenem. How it is done: as §2
For the next data set, the system named is KPC-2 KP1004. The data set can be described thus: Aztreonam potentiation (MPC@4). The format is cell-based. The following applies: minimum BLI concentration inhibiting growth with 4 μg/mL aztreonam.
For data set [5], the system named is CTX-M-15 KP1009. Kind of data set: Aztreonam potentiation (MPC@4). The format is cell-based. Conditions: minimum BLI concentration inhibiting growth with 4 μg/mL aztreonam.
Data set [6] can be described thus: Intravenous pharmacokinetics. The following applies: rat, plasma; rats, IV infusion over 0.5 hours, dose 20 mg/kg; read-out: Free Cl (converted). It counts as in vivo. As to the method:
Rats (n=3 per compound) were administered by a single infusion. IV doses were infused over 0.5 hours via an indwelling femoral vein cannula. Plasma (˜0.3 mL) samples were collected from each rat at designated time points up to 24 hours. Blood samples were centrifuged within 5 min of collection at 12000 g for 5 min to obtain plasma. The plasma samples were stored at −80° C. until analyzed. Data were analyzed using WinNonlin.

Data set [7] relates to CMY-6 EC1010. The data set can be described thus: Aztreonam potentiation (MPC@4). It counts as cell-based. Conditions: minimum BLI concentration inhibiting growth with 4 μg/mL aztreonam.
Data set [8] deals with CTX-M-14 KP1005. Kind of data set: Aztreonam potentiation (MPC@4). It counts as cell-based. The following applies: minimum BLI concentration inhibiting growth with 4 μg/mL aztreonam.
The test system of data set [9] is SHV-5 ec308. Kind of data set: Aztreonam potentiation (MPC@4). It counts as cell-based. The following applies: minimum BLI concentration inhibiting growth with 4 μg/mL aztreonam.
For data set [10], the system named is CTX-M-14 KP1005. The format is cell-based.
Data set [11] has as its system CTX-M-15 KP1009. The format is cell-based.
For data set [12], the system named is SHV-5 ec308. The format is cell-based. The following applies: minimum BLI concentration inhibiting growth with tigemonam at 4 μg/mL.
Data set [13] concerns TEM-10 ec302. The format is cell-based.

Some results are limits rather than exact numbers.

Sequence of KPC-2 (Q9F663 25-293 limits assumed): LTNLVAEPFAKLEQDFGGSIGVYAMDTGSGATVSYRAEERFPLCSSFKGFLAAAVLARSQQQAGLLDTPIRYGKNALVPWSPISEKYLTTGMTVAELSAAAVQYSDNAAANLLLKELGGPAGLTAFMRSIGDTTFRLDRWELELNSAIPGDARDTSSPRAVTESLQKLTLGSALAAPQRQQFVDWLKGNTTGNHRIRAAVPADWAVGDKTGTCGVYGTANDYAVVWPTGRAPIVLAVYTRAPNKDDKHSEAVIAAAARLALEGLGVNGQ
Sequence of CTX-M-14 (Q9L5C7 entry or part of it): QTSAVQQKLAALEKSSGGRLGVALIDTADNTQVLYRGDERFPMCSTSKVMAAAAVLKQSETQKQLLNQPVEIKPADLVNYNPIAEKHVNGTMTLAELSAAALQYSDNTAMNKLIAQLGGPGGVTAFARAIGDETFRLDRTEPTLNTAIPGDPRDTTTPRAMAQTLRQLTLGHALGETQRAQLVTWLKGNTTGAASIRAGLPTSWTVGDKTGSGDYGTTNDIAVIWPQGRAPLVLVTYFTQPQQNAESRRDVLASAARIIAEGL
Sequence of P99 (P05364 21-381): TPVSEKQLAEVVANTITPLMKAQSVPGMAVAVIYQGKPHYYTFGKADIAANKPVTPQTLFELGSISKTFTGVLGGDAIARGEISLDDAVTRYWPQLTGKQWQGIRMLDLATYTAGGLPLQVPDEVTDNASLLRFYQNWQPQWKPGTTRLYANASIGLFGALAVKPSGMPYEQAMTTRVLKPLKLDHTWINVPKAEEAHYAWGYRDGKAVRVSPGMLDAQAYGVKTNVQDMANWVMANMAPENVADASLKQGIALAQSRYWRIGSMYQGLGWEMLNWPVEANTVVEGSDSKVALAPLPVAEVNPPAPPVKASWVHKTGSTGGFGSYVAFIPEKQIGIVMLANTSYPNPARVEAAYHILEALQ
Sequence of OXA-48 (Q6XEC0 23-265 limits assumed): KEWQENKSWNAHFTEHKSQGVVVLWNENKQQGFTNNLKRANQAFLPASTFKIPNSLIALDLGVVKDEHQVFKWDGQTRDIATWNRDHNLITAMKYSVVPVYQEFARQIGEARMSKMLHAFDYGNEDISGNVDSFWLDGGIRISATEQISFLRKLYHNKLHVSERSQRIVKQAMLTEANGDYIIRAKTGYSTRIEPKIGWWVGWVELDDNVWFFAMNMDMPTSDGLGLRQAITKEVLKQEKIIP
Sequence of SHV-12 (P0AD64 22-286 L31Q/G234S/E235K): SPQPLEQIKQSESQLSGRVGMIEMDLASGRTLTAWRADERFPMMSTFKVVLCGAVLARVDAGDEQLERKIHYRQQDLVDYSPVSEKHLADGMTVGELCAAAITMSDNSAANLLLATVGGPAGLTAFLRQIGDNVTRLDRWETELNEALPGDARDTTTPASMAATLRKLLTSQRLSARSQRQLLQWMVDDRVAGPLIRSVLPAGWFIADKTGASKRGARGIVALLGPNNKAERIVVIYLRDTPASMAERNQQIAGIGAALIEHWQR

Regarding `O=C(CSC1CNC1)N[C@H]1Cc2cccc(C(=O)O)c2OB1O` [Compound 22, (R)-3-(2-(azetidin-3-ylthio)acetamido)-2-hydroxy-3,4-dihydro-2H-benzo[e][1,2]oxaborinine-8-carboxylic acid], the Ki is 1 to 10 nM at P99; over 10 nM at KPC-2; 1 to 10 nM on CTX-M-14; under 1 nM on SHV-12; 1 to 10 nM at OXA-48. Further, the “TIG MPC4 ECL1002” value with ECL1002 [1] is “X (MIC of less than 1 μg/mL)”. For the same compound, in the data set with TEM-10 ec302 [2], the “AZT MPC4 TEM-10 ec302” value is on record as “Y (MIC of 1 μg/mL to 10 μg/mL)”. In the data set with ECL1002 [3], the “AZT MPC4 ECL1002” value was “X (MIC of less than 1 μg/mL)”. Moreover, in the data set on CMY-6 EC1010 [4], the “TIG MPC4 CMY-6 EC1010” value is “X (MIC of less than 1 μg/mL)”. Also, the “BPM MPC1 KP1004 KPC-2” value with KP1004 KPC-2 is recorded as “X (MIC of less than 1 μg/mL)”. For the same compound, in the data set on OXA-48 KP1086, the “BPM MPC1 OXA-48 KP1086” value is recorded as “Y (MIC of 1 μg/mL to 10 μg/mL)”. In addition, the “AZT MPC4 KPC-2 KP1004” value with KPC-2 KP1004 is given as “X (MIC of less than 1 μg/mL)”. The “AZT MPC4 CTX-M-15 KP1009” value in the data set on CTX-M-15 KP1009 [5] is on record as “X (MIC of less than 1 μg/mL)”. In addition, the clearance in [6] is 9.5 mL/min/kg. Besides, in the data set on CMY-6 EC1010 [7], the “AZT MPC4 CMY-6 EC1010” value is recorded as “X (MIC of less than 1 μg/mL)”. Moreover, the “AZT MPC4 CTX-M-14 KP1005” value in the data set with CTX-M-14 KP1005 [8] was “X (MIC of less than 1 μg/mL)”. Moreover, the “AZT MPC4 SHV-5 ec308” value in the data set with SHV-5 ec308 [9] was “X (MIC of less than 1 μg/mL)”. The “TIG MPC4 CTX-M-14 KP1005” value in the data set with CTX-M-14 KP1005 [10] is “Y (key: X: MIC of less than 1 μg/mL; Y: MIC of 1 μg/mL to 10 μg/mL; Z: MIC of greater than 10 μg/mL)”. Besides, the “TIG MPC4 CTX-M-15 KP1009” value in the data set on CTX-M-15 KP1009 [11] is “X (key: X: MIC of less than 1 μg/mL; Y: MIC of 1 μg/mL to 10 μg/mL; Z: MIC of greater than 10 μg/mL)”. For the same compound, the “TIG MPC4 SHV-5 ec308” value in the data set on SHV-5 ec308 [12] was “Y (MIC of 1 μg/mL to 10 μg/mL)”.
Regarding `Nc1nnc(C(=O)N[C@H]2Cc3cccc(C(=O)O)c3OB2O)o1` [Compound 20, (R)-3-(5-amino-1,3,4-oxadiazole-2-carboxamido)-2-hydroxy-3,4-dihydro-2H-benzo[e][1,2]oxaborinine-8-carboxylic acid], the Ki on P99 is 1 to 10 nM; on KPC-2, over 10 nM; at CTX-M-14, 1 to 10 nM; at SHV-12, 1 to 10 nM; at OXA-48, 1 to 10 nM. The “TIG MPC4 ECL1002” value in the data set with ECL1002 [1] was “X (MIC of less than 1 μg/mL)”. Further, the “AZT MPC4 TEM-10 ec302” value in the data set on TEM-10 ec302 [2] was “Y (MIC of 1 μg/mL to 10 μg/mL)”. Further, in the data set on ECL1002 [3], the “AZT MPC4 ECL1002” value is “X (MIC of less than 1 μg/mL)”. In addition, the “TIG MPC4 TEM-10 ec302” value in the data set on TEM-10 ec302 [13] is given as “Y (key: X: MIC of less than 1 μg/mL; Y: MIC of 1 μg/mL to 10 μg/mL; Z: MIC of greater than 10 μg/mL)”. Moreover, the “TIG MPC4 CMY-6 EC1010” value in the data set with CMY-6 EC1010 [4] is listed as “X (MIC of less than 1 μg/mL)”. The “BPM MPC1 KP1004 KPC-2” value with KP1004 KPC-2 was “X (MIC of less than 1 μg/mL)”. Also, the “BPM MPC1 OXA-48 KP1086” value in the data set on OXA-48 KP1086 was “Y (MIC of 1 μg/mL to 10 μg/mL)”. Besides, in the data set on KPC-2 KP1004, the “AZT MPC4 KPC-2 KP1004” value is “Y (MIC of 1 μg/mL to 10 μg/mL)”. The “AZT MPC4 CTX-M-15 KP1009” value in the data set with CTX-M-15 KP1009 [5] is on record as “X (MIC of less than 1 μg/mL)”. Further, in the data set on CMY-6 EC1010 [7], the “AZT MPC4 CMY-6 EC1010” value is listed as “X (MIC of less than 1 μg/mL)”. Moreover, the “AZT MPC4 CTX-M-14 KP1005” value in the data set on CTX-M-14 KP1005 [8] was “Y (MIC of 1 μg/mL to 10 μg/mL)”. For the same compound, the “AZT MPC4 SHV-5 ec308” value in the data set with SHV-5 ec308 [9] is recorded as “X (MIC of less than 1 μg/mL)”. Moreover, in the data set with CTX-M-14 KP1005 [10], the “TIG MPC4 CTX-M-14 KP1005” value was “Y (key: X: MIC of less than 1 μg/mL; Y: MIC of 1 μg/mL to 10 μg/mL; Z: MIC of greater than 10 μg/mL)”. The “TIG MPC4 CTX-M-15 KP1009” value in the data set with CTX-M-15 KP1009 [11] is “X (key: X: MIC of less than 1 μg/mL; Y: MIC of 1 μg/mL to 10 μg/mL; Z: MIC of greater than 10 μg/mL)”. The “TIG MPC4 SHV-5 ec308” value in the data set on SHV-5 ec308 [12] is given as “X (MIC of less than 1 μg/mL)”.

As a reminder, the Ki is the dissociation constant of the complex between target and ligand, obtained from inhibition or displacement.
